Reference: patent publication EP4410284A1, “COMPOUND AND METHOD FOR THE TREATMENT OF ZELLWEGER SPECTRUM DISORDER” (Apteeus, priority 2023, dated 2024)
Read-outs that look alike come from different tables or passages of the source.

What was measured:
[1] = system: GM16513 cells; assay: Catalase import immunofluorescence, high-content screening (% importing cells); type: cell-based, human; conditions: GM16513 cells, 3 days; for EC50 / Emax: Homo sapiens, 72 h, dose response with 6 concentrations; for EC50: read-out: EC50; for Emax: read-out: Max Efficacy (% Importing cells)
[2] = system: GM16513 cells; type: cell-based; conditions: 3 days, PI positive cells (dead cells)
Protocol: (§4) Images were acquired using the EnSight multimode plate reader (PerkinElmer) and analysis was done using Columbus analysis software (PerkinElmer). […] Then the total number of cells and the % of dead cells was calculated.
(§5) All HDAC inhibitors were tested at 1.3 and 10 µM for 3 days on GM16513 and PEX405 cells.

[3] = system: PEX405 cells; assay: Catalase import immunofluorescence, high-content screening (% importing cells); type: cell-based, human; conditions: for % Importing cells: PEX405 cells, 3 days
Protocol: The cytotoxicity was assessed in parallel using a double nucleus staining with Hoechst 33342 and Propidium Iodide (PI).

[4] = system: PEX405 cells; type: cell-based; conditions: 3 days, PI positive cells (dead cells)
Protocol: as §4, §5

[5] = system: GM 16865; assay: Catalase import immunofluorescence (% importing cells); type: cell-based, human; conditions: GM 16865 (PEX26)
Protocol: (§1) Primary fibroblasts were seeded at 500-700 cells per well in 384-well plates and grown at 37°C overnight. Cells were treated with test compounds or 0.1% DMSO for 3 days. After 3 days and a wash with PBS, cells were fixed with 4% paraformaldehyde (Electron Microscopy Sciences) in PBS for 20 minutes. After 3 washes with PBS, the cells were permeabilized and blocked with 0.3% Triton X-100, 1% BSA in PBS for 30 minutes at room temperature followed by 3 washes with 1% BSA in PBS. The cells were incubated with a rabbit Catalase polyclonal antibody (#12980 Cell signaling) overnight at 4°C. Following 3 washes with PBS containing 0.1% Tween-20, the cells were incubated for 1 h at room temperature with a conjugated goat anti-rabbit secondary antibody Alexa Fluor 647 (Ab150083-Abcam). The cells were then washed 3 times with PBS and Hoechst 33342 (H3570-ThermoFisher Scientific) + HCS Cellmask Blue (H32720 - ThermoFisher Scientific) staining was performed at 0.1 µg/ml and 0.4 µg/mL respectively for 30 minutes at room temperature. The cells were finally washed 3 times with PBS and fluorescent images were acquired using the INCell Analyzer 6000 imaging platform (GE Healthcare Life Sciences).
(§2) Images analysis was done using Columbus analysis software (PerkinElmer). DAPI channel was used to find nuclei (Hoechst 33342) and cytoplasm (HCS CellMask Blue) and border objects were removed. Cy5 channel (AlexaFluor 647) was used to find spots corresponding to peroxisomes which correctly import catalase. Cells were classified as importing or non-importing cells using a linear classifier method after training with images of wells containing Healthy cells and PEX1 deficient cells. The number of importing or non-importing cells was calculated. Finally, results were expressed as % of importing cells.
(§3) Among the HDAC inhibitors of example 2, 4 were tested on other cells which are PEX1, PEX6 or PEX26 deficient.

[6] = system: GM 17398; assay: as above; type: cell-based, human; conditions: GM 17398 (PEX26 deficient)
Protocol: as §1, §2, §3

[7] = system: GM11335; assay: as above; type: cell-based, human; conditions: GM11335 (PEX26)
Protocol: as §1, §2, §3

[8] = system: PEX304; assay: as above; type: cell-based, human; conditions: PEX304 (PEX1)
Protocol: as §1, §2, §3

[9] = system: PEX506; assay: as above; type: cell-based, human; conditions: PEX506 (PEX6)
Protocol: as §1, §2, §3

[10] = system: PEX607; assay: as above; type: cell-based, human; conditions: PEX607 (PEX6)
Protocol: as §1, §2, §3

| Structure (SMILES) | % Importing cells ([1]; 1.3 µM) | % Importing cells ([1]; 10 µM) | % PI+ cells ([2]; 1.3 µM) | % PI+ cells ([2]; 10 µM) | % Importing cells ([3]; 1.3 µM) | % Importing cells ([3]; 10 µM) | % PI+ cells ([4]; 1.3 µM) | % PI+ cells ([4]; 10 µM) | further results |
| --- | --- | --- | --- | --- | --- | --- | --- | --- | --- |
| O=C(CCCCCCNC(=O)c1cnc(N(c2ccccc2)c2ccccc2)nc1)NO [Ricolinostat] | 30% | 89% | 2% | 5% | 4% | 35% | 1% | 1% | EC50 [1]: 2760 nM; Emax [1]: 96%; Concentration (lower dose leading to the maximum effect) ([3]; PEX405 (PEX1)): 10 µM; Importing cells (%) ([3]; PEX405 (PEX1), at the lower dose leading to the maximum effect (see E12)): 27%; Concentration (lower dose leading to the maximum effect) [5]: 10 µM; Importing cells (%) ([5]; at the lower dose leading to the maximum effect (see E22)): 20%; Concentration (lower dose leading to the maximum effect) [6]: 30 µM; Importing cells (%) ([6]; at the lower dose leading to the maximum effect (see E24)): 0%; Concentration (lower dose leading to the maximum effect) [7]: 10 µM; Importing cells (%) ([7]; at the lower dose leading to the maximum effect (see E20)): 18%; Concentration (lower dose leading to the maximum effect) [8]: 10 µM; Importing cells (%) ([8]; at the lower dose leading to the maximum effect (see E14)): 5%; Concentration (lower dose leading to the maximum effect) [9]: 0.33 µM; Importing cells (%) ([9]; at the lower dose leading to the maximum effect (see E16)): 55%; Concentration (lower dose leading to the maximum effect) [10]: 3 µM; Importing cells (%) ([10]; at the lower dose leading to the maximum effect (see E18)): 40% |
| O=C(NO)c1ccc(CN2CCCc3cc(Cl)ccc32)cc1 [SW-100] | 21% | 6% | 1% | 5% | 4% | 0% | 0% | 2% | – |
| O=C(NO)c1ccc(CNc2cccc3cccnc23)cc1 [MPT0G211] | 29% | 65% | 1% | 4% | 6% | 19% | 1% | 2% | – |
| CCOC(=O)NCCCC(=O)NCCc1ccccc1 [Santacruzamate A] | 24% | 25% | 1% | 1% | 3% | 3% | 2% | 1% | – |
| Cn1c(/C=C/C(=O)NO)ccc1/C=C/C(=O)c1cccc(F)c1 [MC1568] | 25% | 21% | 3% | 90% | 5% | 6% | 0% | 91% | – |
| O=C(CCc1ccc(CN[C@H](C(=O)OC2CCCC2)C2CCCCC2)cn1)NO [HDAC-IN-3] | 50% | 81% | 3% | 26% | 11% | 0% | 4% | 43% | – |
| Cn1cc(-c2ccc(S(=O)(=O)n3ccc(/C=C/C(=O)Nc4ccccc4N)c3)cc2)cn1 [Domatinostat] | 21% | 33% | 6% | 7% | 4% | 7% | 5% | 8% | EC50 [1]: 600 nM; Emax [1]: 33% |
| O=C(/C=C/c1ccc(O)c(O)c1)c1ccc(O[C@@H]2O[C@H](CO)[C@@H](O)[C@H](O)[C@H]2O)c(O)c1O [Marein] | 20% | 22% | 1% | 77% | 5% | 4% | 0% | 74% | – |
| O=C(NCC1(c2nc(-c3ccccc3)cs2)CCOCC1)c1cccc(-c2noc(C(F)(F)F)n2)c1 [TMP269] | 11% | 7% | 1% | 1% | 3% | 3% | 0% | 1% | – |
| O=C(NO)c1ccc(CC(=O)N(CCO)c2ccccc2)cc1 [HPOB] | 29% | 55% | 1% | 1% | 6% | 13% | 1% | 1% | – |
| CC(=O)N[C@@H](CCCCN)C(=O)Nc1ccc2c(C)cc(=O)oc2c1 [Ac-Lys-AMC] | 18% | 14% | 1% | 1% | 3% | 1% | 0% | 0% | – |
| CC1(C)c2cccc(C(=O)NO)c2CN1c1cnc(C(F)(F)F)cn1 [FT895] | 14% | 4% | 1% | 7% | 1% | 0% | 0% | 1% | – |
| Cc1[nH]c2ccccc2c1CCNCc1ccc(/C=C/C(=O)NO)cc1 [Panobinostat] | 86% | 44% | 30% | 32% | 6% | 18% | 48% | 49% | EC50 [1]: 3.14 nM; Emax [1]: 93% |
| Nc1ccccc1NC(=O)CCCCCCC(=O)Nc1ccccc1 [BML-210] | 24% | 73% | 2% | 3% | 7% | 19% | 1% | 1% | – |
| CC(=O)Nc1ccc(C(=O)Nc2ccc(F)cc2N)cc1 [BRD3308] | 12% | 16% | 2% | 2% | 4% | 5% | 1% | 1% | – |
| COc1ccc(-c2nc(N3CCOCC3)c3sc(CN(C)c4ncc(C(=O)NO)cn4)cc3n2)cn1 [Fimepinostat] | 81% | 61% | 25% | 29% | 25% | 4% | 43% | 55% | EC50 [1]: 10 nM; Emax [1]: 92.5% |
| Nc1ccccc1NC(=O)c1ccc(Cn2cc(-c3ccc(C(=O)NCc4cccnc4)cc3)nn2)cc1 [Nampt-IN-3] | 80% | 74% | 3% | 3% | 33% | 31% | 1% | 4% | – |
| CC(=O)Nc1ccc(C(=O)Nc2ccccc2N)cc1 [Tacedinaline] | 15% | 18% | 1% | 2% | 2% | 4% | 1% | 1% | – |
| Cc1ccc(NC(=O)CCCCCC(=O)Nc2ccccc2N)cc1 [Pimelic Diphenylamide 106] | 22% | 52% | 1% | 3% | 4% | 17% | 1% | 2% | – |
